Test results taken from patent US10974081B2, “Treatment and prevention of sleep disorders” (Purdue Pharma L.P., priority 2016, dated 2021).
Converted amounts (≈) assume the structure as drawn. Where two headings read alike, the source gives them in different places.

Key:
mu-opioid receptor = mu-opioid receptor (Homo sapiens, UniProt P35372); conditions: determined in Example 18 of U.S. Pat. No. 8,476,271; cited from earlier work
ORL-1 receptor = ORL-1 receptor (Homo sapiens, UniProt P41146); test: Functional [^35S]GTPγS binding assay, ORL-1; format: biochemical; conditions: from ORL-1 Emax results in Table 21
human liver microsomes = test: In vitro metabolic stability, human liver microsomes; format: in vitro ADME; conditions: 2 μM, % remaining after 30 minutes at 37° C.
Experimental: (§1) The comparative in vitro metabolic stabilities of Compounds (1F), […], and W-212393 were determined upon exposure to human liver microsomes or rat liver microsomes according to a procedure disclosed in, e.g., Example 14 of U.S. Pat. No. 9,290,488, which is hereby incorporated by reference in its entirety. Liver microsomes from Crj;CD rats or humans were incubated with 2 μM of each tested compound; thereafter, the supernatant was analyzed by HPLC-MS for the concentration of the tested compound present. Human liver microsomes, pooled, 20 mg/mL, were obtained from […] #H0610). […] Alternatively and if desired, rat liver microsomes can be obtained commercially from, e.g., XenoTech (Sprague-Dawley rat liver microsomes, pooled, 20 mg/mL, cat #R1000). β-NADPH (β-nicotinamide adenine dinucleotide 2'-phosphate reduced tetrasodium salt hydrate) was obtained from Oriental Yeast Co., Ltd. (Tokyo, Japan). Each tested compound, present at an initial concentration of 2 μM, was incubated at 37° C. in the presence of 0.5 mg/mL of either human microsomes or rat microsomes in suspension in 50 mM Tris-HCl buffer (7.4 pH), 150 mM KCl, 10 mM MgCl2, and 1 mM β-NADPH. Incubation was initiated upon the addition of a 100-fold concentrated solution of the tested compound to one of the microsome preparations. Incubation was terminated by addition of a two-fold volume of a 1/1 mixture of acetonitrile/methanol after either 0 minutes or 30 minutes of incubation at 37° C. Thereafter, proteins and other macromolecules from the microsome preparation were removed by centrifugation. All incubations were conducted in duplicate. […] The HPLC system consisted of a Waters 2795 separations module (Waters Corp., Milford, Mass.) equipped with an inline degasser, temperature controlled auto-sampler, and column oven. The analytical column was a Waters […], 2.1 mm×20 mm column. The mass analyzer was a Waters ZQ, single quadrupole mass spectrometer equipped with an electrospray ionization source operating in the positive ionization mode and utilizing a stainless steel spray capillary. […]

[1] = Rat protein binding, equilibrium dialysis of rat plasma; format: in vitro ADME; conditions: rat, rat plasma, 2 μg/mL, 24 hours dialysis at 37° C.
Experimental: (§2) The extent of in vitro binding of Compound (1F), […], or W-212393 to rat plasma was determined as an assessment of the protein binding of each compound, i.e., compound unavailable for modulating receptor activity. Plasma from rats containing a tested compound in one chamber of a dialysis cell was dialyzed with PBS in the other chamber; thereafter, the supernatant from each chamber was analyzed for the concentration of the tested compound present. A cell suitable for equilibrium dialysis was used in the determinations. The dialysis membrane described in Example 10 (with molecular mass cutoff of 12,000-14,000 Da) separated the dialysis cell into two chambers. The membrane was soaked with purified water and PBS before being placed into the dialysis cell. 4 μL of an iv formulation of each tested compound was added to 996 μL of rat plasma, the latter obtained using syringe containing heparin and EDTA by the procedure described in Example 10, to provide a plasma sample with a tested compound concentration of 2 μg/mL. 450 μL of the plasma sample was applied to one chamber (plasma chamber) of the dialysis cell. A 450 μL aliquot of PBS was applied to the other chamber (PBS chamber) of the dialysis cell. The dialysis study was conducted in duplicate for each tested compound. After 24 hours of equilibrium dialysis at 37° C., 30 μL of liquid from the plasma chamber of the dialysis cell was collected and to this was added 270 μL of fresh PBS (this combination was designated Sample “1”). Then, 270 μL of liquid from the PBS chamber of the dialysis cell was collected and to this was added 30 μL of control rat plasma (i.e., rat plasma never exposed to any test compound, this combination was designated Sample “2”). Thereafter, each sample was mixed well and stored in a freezer until the next analysis step. After the protein precipitated in the freezer, each supernatant thusly obtained was analyzed by LC-MS-MS for unbound test compound. […] Thereafter, the percentage of rat protein-bound (“RPB”) tested compound was calculated as follows: […]

rat plasma = test: as above; format: in vitro ADME
Experimental: as §2

rat liver microsomes = test: In vitro metabolic stability, rat liver microsomes; format: in vitro ADME; conditions: 2 μM, % remaining after 30 minutes at 37° C.
Experimental: as §1

rat serum = test: Free unbound compound fraction, equilibrium dialysis of rat serum; format: in vitro ADME; conditions: average of multiple determinations
Experimental: (§3) The extent of in vitro binding of Compound (1F) or W-212393 to rat serum was determined as an assessment of the availability of free unbound compound for modulating receptor activity according to a procedure disclosed in, e.g., Example 15 of U.S. Pat. No. 9,290,488, which is hereby incorporated by reference in its entirety. Serum from rats containing a tested compound in one chamber of a dialysis cell was dialyzed with phosphate buffered saline (“PBS”) in the other chamber; thereafter, the supernatant from each chamber was analyzed for the concentration of the tested compound present. […] The final concentration of each tested compound in the serum sample was adjusted to 2 μg/mL by adding an appropriate volume of PBS. A cell suitable for equilibrium dialysis was used in the determinations. A SPECTRA/POR dialysis membrane (with molecular mass cutoff of 12,000-14,000 Da, Spectrum Laboratories, Inc., Rancho Dominguez, Calif.) separated the dialysis cell into two chambers. A 500 μL aliquot of the serum sample containing a tested compound was applied to one chamber (serum chamber) of the dialysis cell. A 500 μL aliquot of PBS was applied to the other chamber (PBS chamber) of the dialysis cell. The dialysis study was conducted in duplicate for each tested compound. After 24 hours of equilibrium dialysis at 37° C., 30 μL of liquid from the serum chamber of the dialysis cell was collected and to this was added 270 μL of fresh PBS (this combination was designated Sample “A”). Then, 270 μL of liquid from the PBS chamber of the dialysis cell was collected and to this was added 30 μL of control rat serum (i.e., rat serum never exposed to any test compound, this combination was designated Sample “B”). […] Each supernatant was analyzed by LC-MS-MS. […] Thereafter, the percentage of free unbound tested compound was calculated from the ratio of the tested compound amount determined from Sample B divided by the sum of the tested compound amounts determined from Sample A and Sample B.

[2] = as above; format: in vitro ADME; conditions: male, Crl:CD (SD), rat, rat serum; 2 μg/mL, 24 hours dialysis at 37° C.
Experimental: as §3

[3] = Aqueous solubility at pH about 6.8; format: physicochemical; conditions: 25 °C, pH 6.8, aqueous buffer, kinetic from dmso stock

Chain of ORL-1 receptor (P41146 whole entry): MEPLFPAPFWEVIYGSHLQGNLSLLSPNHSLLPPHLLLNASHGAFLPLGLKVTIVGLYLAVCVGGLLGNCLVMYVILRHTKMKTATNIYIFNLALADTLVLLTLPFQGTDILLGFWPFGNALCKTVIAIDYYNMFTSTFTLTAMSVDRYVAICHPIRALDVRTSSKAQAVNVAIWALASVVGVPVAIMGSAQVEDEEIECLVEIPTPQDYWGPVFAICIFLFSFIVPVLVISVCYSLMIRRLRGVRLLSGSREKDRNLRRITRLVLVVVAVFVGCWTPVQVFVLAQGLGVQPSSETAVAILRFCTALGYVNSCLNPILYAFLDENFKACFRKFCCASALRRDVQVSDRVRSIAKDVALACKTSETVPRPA
Chain of mu-opioid receptor (P35372 whole entry): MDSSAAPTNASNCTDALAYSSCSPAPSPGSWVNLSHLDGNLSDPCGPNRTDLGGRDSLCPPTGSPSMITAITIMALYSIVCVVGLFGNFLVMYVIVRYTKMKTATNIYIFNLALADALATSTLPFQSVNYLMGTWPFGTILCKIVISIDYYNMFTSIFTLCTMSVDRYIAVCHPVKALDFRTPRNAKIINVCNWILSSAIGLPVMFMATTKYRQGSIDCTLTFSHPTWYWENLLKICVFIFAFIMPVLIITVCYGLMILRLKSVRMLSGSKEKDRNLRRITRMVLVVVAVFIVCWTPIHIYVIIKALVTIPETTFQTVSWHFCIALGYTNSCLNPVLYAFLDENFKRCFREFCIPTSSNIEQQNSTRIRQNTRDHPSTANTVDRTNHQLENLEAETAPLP

| Structure (SMILES) | GTPγS Mu Emax (mu-opioid receptor) | agonist classification at ORL-1 from Emax (ORL-1 receptor) | Human Metabolic Stability (%) (human liver microsomes) | fraction unbound at 24 h, 2 μg/mL [1] | Rat Protein Binding (%) (rat plasma; 2 μg/mL, 24 hours dialysis at 37° C.) | bound compound fraction, average (rat plasma; average of multiple determinations) | Rat Metabolic Stability (%) (rat liver microsomes) | free unbound compound fraction, average (rat serum) | fraction unbound at 24 h, 2 μg/mL [2] | solubility at 16 h ([3]; 50 mM phosphate buffer, second procedure (50 mM phosphate buffer, HPLC), read-out: Solubility at pH 6.8) | solubility at 16 h ([3]; first procedure (JP2 solution, LC-MS), read-out: Solubility at pH 6.8) | solubility at 16 h ([3]; pH of about 6.8, over both determinations, read-out: aqueous solubility) |
| --- | --- | --- | --- | --- | --- | --- | --- | --- | --- | --- | --- | --- |
| O=C(O)c1nc2ccccc2n([C@H]2C[C@H]3CCC[C@@H](C2)N3C2CC3CCCC(C3)C2)c1=O (stereo partly drawn) [Compound (1C)] | 0% | partial agonists | – | – | – | – | – | – | – | – | – | – |
| O=C(O)c1nc2ccccc2n([C@H]2C[C@H]3CCC[C@@H](C2)N3C2CC3CCCC(C3)C2)c1=O (stereo partly drawn) [Compound (1F)] | – | – | 98.7% | 0.491 | 53.0% | 52% | 95.3% | 67.5% | 0.65 to 0.7 | 35 µM (≈ 15.2 µg/mL) | > 50 µM | ≥ 35 µM |
